According to article PMC5358767 (PLoS ONE, 2017):
Where a name gives a salt, the structure may show the parent alone. Read-outs that look alike come from different tables or passages of the source. abz = not defined here; dnp = not defined here

Experiments:
S. suis = assay: microbe, parasite or virus in culture; parameters: species or system Streptococcus suis; microtiter broth dilution MIC of natural products against S. suis
Method: To find potent Ss-SrtA inhibitors, the 11 natural products listed in S1 Table were selected for experimental validation using purified recombinant Ss-SrtA. […] Using the microtiter broth dilution method, we measured the MIC values of all these natural products to be >500 μM (S1 Table). […] S. suis strains were cultured in Todd–Hewitt broth (THB; Oxoid Ltd.) without shaking or Todd–Hewitt broth agar plates at 37°C with 5% CO2. E. coli and S. aureus strains were grown in Luria-Bertani (LB) medium at 37°C with shaking at 200 rpm or plated on LB agar. If required, cultures were supplemented with antibiotics at the following concentrations: erythromycin, 3 μg ml^−1 for S. aureus; ampicillin, 100 μg ml^−1 for E. coli.

Sortase A (Sa-SrtA) [1] = target: T1, Sortase A (Sa-SrtA) (Staphylococcus aureus, UniProt Q2FV99); assay: SrtA-dependent fluorescent peptide incorporation in live cells, flow cytometry; […] inhibition at […]; format: cell-based
T1 construct: endogenous, S. aureus Newman D2C cells
T1 sequence (Q2FV99 whole entry): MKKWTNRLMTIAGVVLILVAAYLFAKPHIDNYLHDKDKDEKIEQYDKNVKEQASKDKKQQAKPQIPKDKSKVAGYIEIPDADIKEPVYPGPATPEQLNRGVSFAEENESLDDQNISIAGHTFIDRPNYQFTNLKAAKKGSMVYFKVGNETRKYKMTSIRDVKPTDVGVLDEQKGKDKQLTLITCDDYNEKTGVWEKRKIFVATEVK

Sortase A (Ss-SrtA) = target: T2, Sortase A (Ss-SrtA) (Streptococcus suis, UniProt Q8VUP7); assay: fluorescence-quenched peptide (abz-LPATG-dnp) hydrolysis assay with recombinant enzyme; format: biochemical
T2 construct: residues N24-Q235, C-terminal His-tag
T2 sequence (Q8VUP7 entry or part of it): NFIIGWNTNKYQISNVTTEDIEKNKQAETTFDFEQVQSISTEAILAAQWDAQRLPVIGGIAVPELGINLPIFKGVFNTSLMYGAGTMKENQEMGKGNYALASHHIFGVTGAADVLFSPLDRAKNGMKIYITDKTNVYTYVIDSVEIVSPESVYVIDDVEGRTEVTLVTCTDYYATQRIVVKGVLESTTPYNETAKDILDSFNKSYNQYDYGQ

Sortase A (Sa-SrtA) [2] = target: T1, Sortase A (Sa-SrtA); assay: SrtA-dependent fluorescent peptide incorporation in live cells, flow cytometry; […] inhibition at […]; format: cell-based; remark: listed apart in the source
Sortase A (Sa-SrtA) [3] = target: T1, Sortase A (Sa-SrtA); assay: as above; format: cell-based; remark: listed apart in the source
[4] = target: Streptococcus suis sortase A (recombinant, residues N24-Q235 with C-terminal His-tag) (Streptococcus suis)
[5] = Streptococcus suis, read-out: MIC

Row | Molecule | MIC (S. suis; [5]) | IC50 (Sortase A (Ss-SrtA)) | further results
1 | CCCCC[C@H](O)CC(=O)CCc1ccc(O)c(OC)c1 [6-Gingerol] | > 500 µM |  | 
2 | O=c1cc(-c2ccccc2)oc2cc(O)c(O)c(O)c12 [Baicalein] | > 500 µM |  | 
3 | C[C@@H]1O[C@@H](OC[C@H]2O[C@@H](Oc3c(-c4ccc(O)c(O)c4)oc4cc(O)cc(O)c4c3=O)[C@H](O)[C@@H](O)[C@@H]2O)[C@H](O)[C@H](O)[C@H]1O [Rutin] | > 500 µM |  | 
4 | O=c1cc(-c2ccc(O)cc2)oc2c([C@@H]3O[C@H](CO)[C@@H](O)[C@H](O)[C@H]3O)c(O)cc(O)c12 [Vitexin] |  |  | MIC (S. suis; inhibitor): >500 µM
5 | COc1c(O)cc(O)c2c(=O)cc(-c3ccccc3)oc12 [Wogonin] | > 500 µM |  | 
6 | C[C@@H]1O[C@@H](O[C@@H]2[C@@H](O)[C@H](OCCc3ccc(O)c(O)c3)O[C@H](CO)[C@H]2OC(=O)/C=C/c2ccc(O)c(O)c2)[C@H](O)[C@H](O)[C@H]1O [acteoside] | > 500 µM | 36.3 ± 1.3 µM | inhibition at 200 µM (Sortase A (Sa-SrtA) [1]): 86%
7 | O=C(O)[C@H]1O[C@@H](Oc2cc3oc(-c4ccccc4)cc(=O)c3c(O)c2O)[C@H](O)[C@@H](O)[C@@H]1O [baicalin] | > 500 µM | 85.4 ± 1.5 µM | inhibition at 200 µM (Sortase A (Sa-SrtA) [2]): 45%
8 | COc1ccc2cc3[n+](cc2c1OC)CCc1cc2c(cc1-3)OCO2 [berberine hydrochloride] | > 500 µM | < 100 µM | 
9 | COc1cc(/C=C/C(=O)CC(=O)/C=C/c2ccc(O)c(OC)c2)ccc1O [curcumin] | > 500 µM | < 100 µM | 
10 | O=c1c(O[C@@H]2O[C@H](CO)[C@@H](O)[C@H](O)[C@H]2O)c(-c2ccc(O)c(O)c2)oc2cc(O)cc(O)c12 [isoquercitrin] | > 500 µM |  | inhibition at 200 µM (Sortase A (Sa-SrtA) [3]): 28%
11 | O=c1c(O)c(-c2ccc(O)c(O)c2)oc2cc(O)cc(O)c12 [quercetin] | > 500 µM | < 100 µM | 
12 | abz-LPATG-dnp (reading uncertain; also: printed as abz-LPATG-dnp) [abz-LPATG-dnp (internally quenched fluorescent peptide substrate)] |  |  | Km for the hydrolysis of abz-LPATG-dnp by purified Ss-SrtA (fluorescence increase of the quenched peptide; substrate 0.375-64 μM; 50 mM Tris·HCl, 150 mM NaCl, pH 7.5, 37°C) [4]: 6.7 μM
